We go through one substance from patent US20230414644A1, “ORAL CANINE FEED AND METHODS FOR CONTROLLING FLEA INFESTATIONS IN A CANINE” (In the Bowl Animal Health, Inc., priority 2021, published 2023).

The assay relates to Ctenocephalides felis. Kind of assay: Efficacy of spinosyn administered per os (liquid formulation, daily) to dogs against experimental flea infestation, comb counts of live adult fleas. Format: in vivo. The following applies: for percent reduction in live adult flea counts: day 14 comb count; for Efficacy (percent reduction in live adult flea counts): day 37, after the five day wash out period. The source says: Efficacy of Spinosyn Administered Per Os, i.e. by Mouth, to Dogs for the Treatment and Control of Ctenocephalides felis.
Methods: A pool of 40 dogs are to be preliminarily infested with ˜100 unfed adult C. felis in order to produce a pool of dogs that can suitably sustain a reliable infestation rate of approximately 50% of live fleas over a 48-hour period. The dogs with the highest live flea counts are to be randomly allocated to 4 treatment groups (6 dogs per group) based on their pre-treatment flea counts from experimental infestations. The first treatment group is to be the control group and groups 2-4 are to be the test groups.
The dogs are to be housed individually during the study period and are to be fed a commercial dry dog food ration with ad libitum access to water.
Dogs in the control group are not to receive a spinosyn or any other flea control treatment. Each dog in test groups 2-4 is to be offered its daily ration (dry food) and the individual doses of liquid formulation are to be administered after the individual dog has eaten at least 25% of its total daily ration. After receiving the dose of a spinosyn the dogs are to be allowed to continue eating. This mimics incorporating the spinosyn in feed. Each dog in test groups 2-4 and the control group is to be experimentally infested with 100 unfed adult fleas on test days −1, 5, 12, 19, 28 and 35. Comb counts for live adult fleas are to be conducted on days 2, 7, 14, 21, 30 and 37. The final experimental infestation is to occur five days after the last daily dose of spinosyn.

On to spinosad, for which the “percent reduction in live adult flea counts” value runs as follows: (0.25 mg/kg daily oral (Group 2)) 100%; (0.50 mg/kg daily oral (Group 3)) 100%; (1.0 mg/kg daily oral (Group 4)) 100%. Further, the “Efficacy (percent reduction in live adult flea counts)” value by setting is: (0.50 mg/kg daily oral days 0-29 (Group 3)) “over 98%”; (1.0 mg/kg daily oral days 0-29 (Group 4)) “over 98%”.
